The ED50 is the dose that gives a 50% effect, or the effect in half of the subjects. What is called pEC50 is −log10 of the EC50, conventionally taken in molar units. The term pIC50 denotes the negative decadic logarithm of the IC50, by convention in mol/L.

Results on eleven compounds are retold here after patent US20240383850A1, “INDOLE DERIVATIVES AS SEROTONERGIC AGENTS USEFUL FOR THE TREATMENT OF DISORDERS RELATED THERETO” (Mindset Pharma Inc., priority 2021, published 2024).

pEC50, pIC50: −log10 of the molar value. Read-outs that look alike come from different tables or passages of the source.

Data set [1] concerns C57BL/6J mice. Put plainly: Mouse head twitch response (HTR). The data set is classed as in vivo. The note with it: for duration of HT expression: at 10-30 mg/kg. On the procedure: (§1) The effect of different doses of representative compounds of Formula I was evaluated on head-twitch response (HTR) and other behavioural responses indicative of serotonin syndrome as behavior-based models of psychedelic activity.
(§2) Male, C57BL/6J mice (body weight range 20-30 g) were dosed with the appropriate dose of test article, and following a 1-minute pre-treatment time, placed in individual observation chambers. Animals were visually assessed for the incidence head twitches continuously over a 1 hr period. Head twitches were defined as a rapid jerk of the head which was not elicited by an external tactile stimulus (Come and Pickering, Psychopharmacologia, 1967, 11(1): 65-78). Each head twitch was individually counted by a trained observer, and the data expressed as the mean±SEM of 6-10 mice per group. Mice were used in a single experiment only.

The test system of data set [2] is C57BL/6J mice. Put plainly: Behavioural responses indicative of serotonin syndrome and motor activity, observed in the mouse head twitch study. The data set is classed as in vivo. On the procedure:
as §1, §2

The target of data set [3] is human 5-HT2A (h5-HT2A) receptor (Homo sapiens, UniProt P28223). Description: FLIPR calcium assay, human 5-HT2A, agonist mode.
Data set [4] deals with T1, human 5-HT2A receptor (Homo sapiens, UniProt P28223). Put plainly: biochemical.
Data set [5] concerns the target T1, human 5-HT2A receptor. The note with it: read-out: h5-HT2A IC50; competition with [3H]-ketanserin, cell membranes.

T1 sequence (P28223 whole entry): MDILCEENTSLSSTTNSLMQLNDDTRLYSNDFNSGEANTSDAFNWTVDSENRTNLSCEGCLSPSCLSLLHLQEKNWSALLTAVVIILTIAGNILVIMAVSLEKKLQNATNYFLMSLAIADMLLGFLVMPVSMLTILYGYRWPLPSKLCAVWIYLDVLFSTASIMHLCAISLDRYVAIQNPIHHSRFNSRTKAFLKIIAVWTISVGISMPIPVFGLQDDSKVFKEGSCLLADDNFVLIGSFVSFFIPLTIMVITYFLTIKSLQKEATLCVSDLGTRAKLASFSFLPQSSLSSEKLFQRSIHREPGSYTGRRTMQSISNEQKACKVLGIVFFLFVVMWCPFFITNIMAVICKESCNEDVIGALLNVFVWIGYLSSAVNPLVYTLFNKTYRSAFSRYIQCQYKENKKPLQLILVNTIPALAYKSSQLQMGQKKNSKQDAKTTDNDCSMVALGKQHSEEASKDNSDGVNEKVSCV
Sequence of human 5-HT2A (h5-HT2A) receptor (P28223 whole entry): as above

Consider `[2H]C([2H])(c1c[nH]c2ccc(OC)cc12)[C@H]1CCCN1C(=O)CCCCCCC/C=C\C/C=C\CCCCC` [(R)—I-51], for which the ED50 in data set [1] (Mus musculus, male C57BL/6J mice, SC, head twitches counted over 1 hr) came out at 2.8 mg/kg. Moreover, the “head twitch response expression” value in data set [1] (mice, 1-60 mg/kg SC, compared to 5-MeO DMT) was “elicited a robust head twitch response expression”. Further, the “duration of HT expression” value in data set [1] (mice, SC) was 0 to 30 min. The motor activity result in data set [2] (1-30 mg/kg, not formally measured) is recorded as “did not reduce motor activity”. The “signs of 5-HT syndrome (whole body twitches, FPT, Straub tail)” value in data set [2] (up to 60 mg/kg SC) is listed as “did not induce signs of 5-HT syndrome”.
For `COc1ccc2[nH]cc(CCN(C)C)c2c1` [Compound 5-MeO-DMT, 5-MeO-DMT, reference compound], the “ED50 head twitch response” value in data set [1] (male C57BL/6J mice, SC, head twitches counted over 1 hr) was determined as 8 mg/kg. Further, in data set [1] (mice, SC), the “duration of HT expression” value is 0 to 20 min.
On to `CCCCC/C=C\C/C=C\CCCCCCCC(=O)N(C)CCc1c[nH]c2ccccc12` [Compound I-1, (9Z,12Z)—N-(2-(1H-Indol-3-yl)ethyl)-N-methyloctadeca-9,12-dienamide], for which the pEC50 in data set [3] is less than 4.52. Also, the pIC50 in data set [4] was 4.52 to 5.00.
Taken in the same sequence, the figures for `CCCCC/C=C\C/C=C\CCCCCCCC(=O)N(C)CCc1c[nH]c2ccc(OC)cc12` [Compound I-21, (9Z,12Z)—N-(2-(5-Methoxy-1H-indol-3-yl)ethyl)-N-methyloctadeca-9,12-dienamide] were less than 4.52 and 4.52 to 5.00.
Taken in the same sequence, the figures for `CCCCC/C=C\C/C=C\CCCCCCCC(=O)N1CCC[C@@H]1Cc1c[nH]c2ccccc12` [Compound I-46, (9Z,12Z)-1-((R)-2-((1H-Indol-3-yl)methyl)pyrrolidin-1-yl)octadeca-9,12-dien-1-one] were less than 4.52 and less than 4.52.
Consider `CCCCC/C=C\C/C=C\CCCCCCCC(=O)N1CCC[C@@H]1Cc1c[nH]c2ccc(OC)cc12` [Compound I-55, (9Z,12Z)-1-((R)-2-((5-Methoxy-1H-indol-3-yl)methyl)pyrrolidin-1-yl)octadeca-9,12-dien-1-one], for which, in data set [3], the pEC50 is less than 4.52. In data set [4], this compound had a pIC50 of less than 4.52.
Consider `CCCCC/C=C\C/C=C\CCCCCCCC(=O)N1CCC(c2c[nH]c3ccc(OC)cc23)C1` (stereo not shown) [Compound I-81, (9Z,12Z)-1-(3-(5-Methoxy-1H-indol-3-yl)pyrrolidin-1-yl)octadeca-9,12-dien-1-one], for which the pEC50 in data set [3] is less than 4.52. In data set [4], this compound had a pIC50 of less than 4.52.
Take `CCCCC/C=C\C/C=C\CCCCCCCC(=O)N1CCC(c2c[nH]c3ccccc23)C1` (stereo not shown) [Compound I-84, (9Z,12Z)-1-(3-(1H-Indol-3-yl)pyrrolidin-1-yl)octadeca-9,12-dien-1-one]: the pEC50 in data set [3] was less than 4.52. Also, in data set [4], the pIC50 was 4.52 to 5.00.
Taken in the same sequence, the figures for `CCCCC/C=C\C/C=C\CCCCCCCC(=O)N1CCC(c2c[nH]c3ccccc23)CC1` [Compound I-87, (9Z,12Z)-1-(4-(1H-Indol-3-yl)piperidin-1-yl)octadeca-9,12-dien-1-one] were less than 4.52 and 4.52 to 5.00.
Taken in the same sequence, the figures for `CCCCC/C=C\C/C=C\CCCCCCCC(=O)N1CCC(c2c[nH]c3ccc(OC)cc23)CC1` [Compound I-88, (9Z,12Z)-1-(4-(5-Methoxy-1H-indol-3-yl)piperidin-1-yl)octadeca-9,12-dien-1-one] were less than 4.52 and 4.52 to 5.00.
Take `CN(C)CCc1c[nH]c2ccccc12` [DMT]: in data set [3] (read-out: h5-HT2A EC50, FLIPR calcium assay, agonist mode), the pEC50 is greater than 5.00. For the same compound, the pIC50 in data set [5] was greater than 5.00.
